Source: patent US7294637B2 (Sepracor, Inc., priority 2000, dated 2007)
Where two headings read alike, the source gives them in different places.

What was measured:
[1] = target: norepinephrine transporter (Homo sapiens, UniProt P23975); experiment: NE uptake: displacement of norephinephrine ligands in vitro (methods of Galli et al.); assay type: binding
serotonin transporter = serotonin transporter (Homo sapiens, UniProt P31645); experiment: 5-HT uptake: displacement of serotonin ligands in vitro (methods of Gu et al.); assay type: binding; settings: read-out: 5-HT Uptake, Uptake Profile (IC50)
dopamine transporter = dopamine transporter (Homo sapiens, UniProt Q01959); experiment: DA uptake: displacement of dopamine ligands in vitro (methods of Gu et al.)
[2] = read-out: NE Uptake, Uptake Profile (IC50)
[3] = DA Uptake, Uptake Profile (IC50, nM), displacement of dopamine ligands in vitro
[4] = displacement of serotonin ligands in vitro
[5] = NE Uptake, Uptake Profile (IC50, nM)

Chain of serotonin transporter (P31645 whole entry): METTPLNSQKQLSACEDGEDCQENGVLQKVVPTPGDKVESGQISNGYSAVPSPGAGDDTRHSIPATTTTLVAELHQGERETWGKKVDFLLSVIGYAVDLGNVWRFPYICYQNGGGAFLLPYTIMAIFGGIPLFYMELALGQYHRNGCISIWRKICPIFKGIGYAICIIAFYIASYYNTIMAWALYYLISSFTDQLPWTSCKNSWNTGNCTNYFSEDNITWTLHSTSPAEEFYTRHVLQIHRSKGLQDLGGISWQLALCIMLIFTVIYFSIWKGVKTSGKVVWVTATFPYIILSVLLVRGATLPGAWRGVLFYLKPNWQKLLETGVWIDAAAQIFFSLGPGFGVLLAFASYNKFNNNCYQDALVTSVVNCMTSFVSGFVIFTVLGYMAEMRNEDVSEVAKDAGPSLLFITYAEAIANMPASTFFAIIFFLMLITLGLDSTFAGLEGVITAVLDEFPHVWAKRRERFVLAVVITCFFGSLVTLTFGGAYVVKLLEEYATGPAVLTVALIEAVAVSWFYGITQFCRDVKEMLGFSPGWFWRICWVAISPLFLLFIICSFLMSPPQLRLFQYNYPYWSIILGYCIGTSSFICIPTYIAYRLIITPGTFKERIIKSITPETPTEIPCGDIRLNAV
Chain of norepinephrine transporter (P23975 whole entry): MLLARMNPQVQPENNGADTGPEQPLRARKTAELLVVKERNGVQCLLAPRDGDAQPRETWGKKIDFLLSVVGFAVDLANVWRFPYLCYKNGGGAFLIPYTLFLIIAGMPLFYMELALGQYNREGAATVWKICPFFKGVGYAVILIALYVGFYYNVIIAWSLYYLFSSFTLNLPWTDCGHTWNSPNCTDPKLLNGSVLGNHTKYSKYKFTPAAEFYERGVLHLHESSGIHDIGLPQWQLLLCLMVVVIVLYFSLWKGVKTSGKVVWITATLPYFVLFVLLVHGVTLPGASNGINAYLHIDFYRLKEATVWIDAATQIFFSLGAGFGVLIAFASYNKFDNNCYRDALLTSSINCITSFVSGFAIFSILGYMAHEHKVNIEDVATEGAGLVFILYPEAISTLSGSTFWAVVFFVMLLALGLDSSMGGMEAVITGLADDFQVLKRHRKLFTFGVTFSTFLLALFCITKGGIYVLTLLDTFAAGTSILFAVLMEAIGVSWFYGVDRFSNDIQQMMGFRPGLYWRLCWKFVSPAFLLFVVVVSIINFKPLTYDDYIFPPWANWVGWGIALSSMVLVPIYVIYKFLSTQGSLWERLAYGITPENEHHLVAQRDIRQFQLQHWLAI
Chain of dopamine transporter (Q01959 whole entry): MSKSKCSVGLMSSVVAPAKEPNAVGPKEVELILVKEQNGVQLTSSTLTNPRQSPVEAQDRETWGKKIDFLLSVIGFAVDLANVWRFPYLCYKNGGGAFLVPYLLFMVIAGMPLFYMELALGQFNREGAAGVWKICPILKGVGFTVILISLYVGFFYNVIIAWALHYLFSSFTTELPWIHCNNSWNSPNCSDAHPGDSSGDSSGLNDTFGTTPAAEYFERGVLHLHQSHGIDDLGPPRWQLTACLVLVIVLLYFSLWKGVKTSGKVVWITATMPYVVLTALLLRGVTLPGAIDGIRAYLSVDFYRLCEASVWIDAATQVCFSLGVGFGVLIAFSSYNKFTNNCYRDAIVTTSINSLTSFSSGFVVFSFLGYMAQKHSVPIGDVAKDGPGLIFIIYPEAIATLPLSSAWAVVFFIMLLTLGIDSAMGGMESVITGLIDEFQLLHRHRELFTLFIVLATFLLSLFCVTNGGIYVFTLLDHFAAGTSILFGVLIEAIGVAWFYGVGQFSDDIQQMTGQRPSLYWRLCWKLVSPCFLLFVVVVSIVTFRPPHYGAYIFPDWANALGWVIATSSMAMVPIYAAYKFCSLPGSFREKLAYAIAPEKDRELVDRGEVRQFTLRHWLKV

Row | SMILES | IC50 [1, 2] [nM] | IC50 (serotonin transporter) [nM] | IC50 (dopamine transporter; [3]) [nM] | IC50 (serotonin transporter; [4]) [nM] | IC50 (dopamine transporter) [nM] | IC50 [1, 5] [nM] | IC50 (dopamine transporter; read-out: DA Uptake, Uptake Profile (IC50), displacement of dopamine ligands in vitro) [nM]
1 | OC1(COc2ccc(C(F)(F)F)cc2)CCCN(CC2(c3ccc(Cl)cc3)CCC2)C1 (centres unmarked) [compound 167, [1-(4-Chloro-phenyl)-cyclobutylmethyl]-3-(4-trifluoromethyl-phenoxymethyl)-piperidin-3-ol] | > 1000 | > 1000 | > 1000 | – | – | – | –
2 | O=C(CN1CCCC(CCc2ccc(C(F)(F)F)cc2)C1)c1ccc(Cl)cc1 (centres unmarked) [compound 150, 1-(4-Chloro-phenyl)-2-{3-[2-(4-trifluoromethyl-phenyl)-ethyl]-piperidin-1-yl}-ethanone] | > 1000 | – | – | > 1000 | > 1000 | – | –
3 | OC(CN1CCCC(COc2ccc(C(F)(F)F)cc2)C1)C1(c2ccc(C(F)(F)F)cc2)CCC1 (centres unmarked) [compound 166] | – | – | < 10 | > 1000 | – | < 100 | –
4 | FC(F)(F)c1ccc(OCC2CCCN(CCc3c[nH]c4ccccc34)C2)cc1 (centres unmarked) [compound 180, 3-{2-[3-(4-Trifluoromethyl-phenoxymethyl)-piperidin-1-yl]-ethyl}-1H-indole] | – | – | < 1000 | < 1000 | – | < 1000 | –
5 | CN(C)CC(Oc1ccc(C(F)(F)F)cc1)C1CCCN(C(=O)C2(c3ccc(Cl)cc3)CCC2)C1 (racemic) [compound 173] | – | – | > 1000 | < 100 | – | > 1000 | –
6 | FC(F)(F)c1ccc(OCC2CCCN(CC3(c4ccc(Cl)cc4)CCOCC3)C2)cc1 (centres unmarked) [compound 159, 1-[4-(4-Chloro-phenyl)-tetrahydro-piran-4-ylmethyl]-3-(4-trifluoromethyl-phenoxymethyl)piperidine] | – | – | < 100 | < 1000 | – | < 1000 | –
7 | OC(CN1CCCC(CCc2ccccc2)C1)c1ccc(Cl)cc1 (single isomer, unassigned) [compound 141, 1-(4-Chloro-phenyl)-2-(3-phenethyl-piperidin-1-yl)-ethanol] | – | – | < 1000 | < 1000 | – | < 1000 | –
8 | CN(C)CC(Oc1ccc(C(F)(F)F)cc1)C1CCCN(CC2(c3ccc(Cl)cc3)CCC2)C1 (racemic) [compound 175] | – | – | < 1000 | < 1000 | – | > 1000 | –
9 | OC(CN1CCCC(CCc2ccc(C(F)(F)F)cc2)C1)c1ccc(Cl)cc1 (single isomer, unassigned) [compound 154, 1-(4-Chloro-phenyl)-2-{3-[2-(4-trifluoromethyl-phenyl)-ethyl]-piperidin-1-yl}-ethanol] | – | – | < 10 | < 10 | – | < 100 | –
10 | FC(F)(F)c1ccc(OC2CCCN(CC3(c4ccc(Cl)cc4)CCC3)C2)cc1 (centres unmarked) [compound 158] | – | – | < 1000 | > 1000 | – | > 1000 | –
11 | O=C(N1CCCC(CO)C1)C1(c2ccc(Cl)cc2)CCC1 (centres unmarked) [compound 1, [1-(4-chloro-phenyl)-cyclobutyl]-(3-hydroxymethylpiperidin-1yl)-methadone] | – | – | > 1000 | > 1000 | – | > 1000 | –
12 | FC(F)(F)c1ccc(COC2CCCN(CC3(c4ccc(Cl)cc4)CCC3)C2)cc1 (centres unmarked) [compound 107, 1-[1-(4-Chloro-phenyl)-cyclobutylmethyl]-3-(4-trifluoromethyl-benzyloxy)-piperidine] | – | – | < 1000 | > 1000 | – | < 1000 | –
13 | CN(C)CC(Oc1ccc(C(F)(F)F)cc1)C1CCCN(CC2(c3ccc(Cl)cc3)CCC2)C1 (racemic) [compound 174] | – | – | < 100 | < 100 | – | < 1000 | –
14 | FC(F)(F)c1ccc(OCC2CCCN(CCc3ccc(Cl)cc3)C2)cc1 (centres unmarked) [compound 8, 1-[2-(4-Chloro-phenyl)-ethyl]-3-(4-trifluoromethyl-phenoxymethyl)-piperidine] | > 1000 | – | > 1000 | – | – | – | –
15 | Clc1ccc(C2(CN3CCCC(COc4ccccc4)C3)CCC2)cc1 (single isomer, unassigned) [compound 6] | – | – | – | – | – | – | < 1000
16 | Clc1ccc(C2(CN3CCC[C@@H](COc4ccccc4)C3)CCC2)cc1 [compound 72] | – | – | < 1000 | – | – | – | –
17 | Clc1ccc(C2(CN3CCCC(COc4ccccc4)C3)CCC2)cc1 (single isomer, unassigned) [compound 5] | – | – | < 1000 | – | – | – | –
